Experimental data as given in patent US11065253B2, “Arylquinazolines” (Merck Patent GmbH, priority 2013, dated 2021).
pIC50: −log10 of the molar value. Like-named read-outs stand apart in the source and are kept apart here. Values belong to the compound of their own block, whether it stands above or below them.

Test system: phospho-serine 2056 DNA-PK in HCT116 cells
Assay: DNA-PK phosphorylation at serine 2056 (cellular), ELISA in bleomycin-treated HCT116 cells
Format: cell-based
Details: read-out: IC50 pDNA-PK
Summary of the method: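 After overnight seeding, HCT116 cells received compound with 10 μM bleomycin for 6 h; phospho-DNA-PK ELISA signals were scaled to total DNA-PKcs, DMSO serving as blank.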

[1] = Homo sapiens, HCT-116, 6 h, cellular, HCT116 cells, 10 μM bleomycin, six hours
[2] = cellular DNA-PK phosphorylation at serine 2056, HCT116 cells
[3] = Homo sapiens, HCT-116, cellular DNA-PK phosphorylation at serine 2056, HCT116 cells
[4] = Homo sapiens, HCT-116, phospho-serine 2056 DNA-PK, bleomycin-treated HCT116 cells
[5] = Homo sapiens, HCT-116, phospho-serine 2056 DNA-PK, bleomycin-treated HCT116 cells, class symbols A-D

- pIC50 [4]: > 6.30
SMILES: [2H]C1([2H])OC([2H])([2H])C([2H])([2H])N(c2ccc3c(-c4cc(C(O)c5nccnc5C)ccc4F)ncnc3c2)C1([2H])[2H] (stereo not drawn) [Example 238, [4-Fluoro-3-[7-(2,2,3,3,5,5,6,6-octadeuterio-morpholin-4-yl)quinazolin-4-yl]phenyl]-(3-methyl-pyrazin-2-yl)-methanol]

- pIC50 [4]: 4.52 to 5.00
SMILES: NC(=O)C(c1cccnn1)c1cc(-c2ncnc3cc(N4CCOCC4)ccc23)c(F)cc1Cl (stereo not drawn) [Example 300, 2-[2-Chloro-4-fluoro-5-(7-morpholin-4-yl-quinazolin-4-yl)-phenyl]-2-pyridazin-3-ylacetamide]

- pIC50 [5]: 5.30 to 6.30
SMILES: OC(c1ccc(F)c(-c2ncnc3cc(N4CCOCC4)sc23)c1)c1nccs1 (stereo not drawn) [Example 145, [4-Fluoro-3-(6-morpholin-4-yl-thieno[3,2-d}-pyrimidin-4-yl)-phenyl]thiazol-2-yl-methanol]

- pIC50 [4]: 4.52 to 5.00
SMILES: COC(c1ccc(F)c(-c2ncnc3cc(N4CCOCC4)ccc23)c1)c1nccnc1C (stereo not drawn) [Example 353, 4-{2-Fluoro-5-[methoxy-(3-methyl-pyrazin-2-yl)methyl]-phenyl}-7-morpholin-4-ylquinazoline (Ena 2)]

- pIC50 [1]: 5.30 to 6.30
SMILES: COc1ccc([C@H](O)c2ccc(F)c(-c3ncnc4cc(N5CCOCC5)ccc34)c2)nn1 [Example 71, (R)-[4-Fluoro-3-(7-morpholin-4-yl-quinazolin-4-yl)phenyl]-(6-methoxypyridazin-3-yl)methanol]

- pIC50 [5]: 5.30 to 6.30
SMILES: Cn1nc(C(O)c2cc(-c3ncnc4cc(N5CCOCC5)ccc34)c(F)cc2F)ccc1=O (stereo not drawn) [Example 219, 6-{[2,4-Difluoro-5-(7-morpholin-4-yl-quinazolin-4-yl)-phenyl]hydroxy-methyl}-2-methyl-2H-pyridazin-3-one]

- pIC50 [2]: > 6.30
SMILES: Cc1nccnc1C(O)c1cc(-c2ncnc3cc(N4CCOCC4)ccc23)ccc1Cl (stereo not drawn) [Example 428, [2-Chloro-5-(7-morpholin-4-yl-quinazolin-4-yl)-phenyl]-(3-methyl-pyrazin-2-yl)-methanol]

- pIC50 [5]: 4.52 to 5.00
SMILES: OC(c1cc(F)cc(-c2ncnc3cc(N4CCOCC4)ccc23)c1)c1nccs1 (stereo not drawn) [Example 169, [3-Fluoro-5-(7-morpholin-4-yl-quinazolin-4-yl)-phenyl]thiazol-2-yl-methanol]

- pIC50 [5]: 5.30 to 6.30
SMILES: OC(c1ccc2ncnn2c1)c1cc(-c2ncnc3cc(N4CCOCC4)ccc23)c(F)cc1F (stereo not drawn) [Example 222, [2,4-Difluoro-5-(7-morpholin-4-yl-quinazolin-4-yl)-phenyl]-[1,2,4]-triazolo[1,5-a]pyridin-6-ylmethanol]

- pIC50 [2]: 5.30 to 6.30
SMILES: Cc1nccnc1C(O)c1cc(-c2ncnc3cc(N4CCOCC4)ccc23)ccc1Cl (stereo not drawn) [Example 427, [2-Chloro-5-(7-morpholin-4-yl-quinazolin-4-yl)-phenyl]-(3-methyl-pyrazin-2-yl)-methanol (Ena 1)]

Continued, compound first:

SMILES: COc1cc(C(O)c2ccc(F)c(-c3ncnc4cc(N5CCOCC5)ccc34)c2)c(Cl)nn1 (stereo not drawn) [Example 7, (3-Chloro-6-methoxy-pyridazin-4-yl)-[4-fluoro-3-(7-morpholin-4-yl-quinazolin-4-yl)phenyl]-methanol]
- pIC50 [1]: > 6.30

SMILES: Cn1c(C(O)c2cc(-c3ncnc4cc(N5CCOCC5)ccc34)c(F)cc2F)cccc1=O (stereo not drawn) [Example 436, 6-{[2,4-Difluoro-5-(7-morpholin-4-yl-quinazolin-4-yl)-phenyl]hydroxy-methyl}-1-methyl-1H-pyridin-2-one]
- pIC50 [2]: 5.30 to 6.30

SMILES: Cn1c(C(O)c2cc(-c3ncnc4cc(N5CCOCC5)ccc34)ccc2Cl)cccc1=O (stereo not drawn) [Example 400, 6-{[2-Chloro-5-(7-morpholin-4-yl-quinazolin-4-yl)-phenyl]hydroxy-methyl}-1-methyl-1H-pyridin-2-one]
- pIC50 [3]: > 6.30

SMILES: COc1nccnc1C(C(N)=O)c1cc(-c2ncnc3cc(N4CCOCC4)cc(F)c23)c(F)cc1Cl (stereo not drawn) [Example 261, 2-[2-Chloro-4-fluoro-5-(5-fluoro-7-morpholin-4-yl-quinazolin-4-yl)-phenyl]-2-(3-methoxy-pyrazin-2-yl)acetamide]
- pIC50 [4]: 5.30 to 6.30

SMILES: NC(=O)C(c1ccc2nccn2n1)c1cc(-c2ncnc3cc(N4CCOCC4)ccc23)c(F)cc1Cl (stereo not drawn) [Example 323, 2-[2-Chloro-4-fluoro-5-(7-morpholin-4-yl-quinazolin-4-yl)-phenyl]-2-imidazo-[1,2-b]pyridazin-6-yl-acetamide]
- pIC50 [4]: 5.30 to 6.30

SMILES: COc1ccnnc1C(O)c1cc(-c2ncnc3cc(N4CCOCC4)ccc23)c(F)cc1Cl (stereo not drawn) [Example 3, [2-Chloro-4-fluoro-5-(7-morpholin-4-yl-quinazolin-4-yl)phenyl]-(4-methoxy-pyridazin-3-yl)methanol]
- pIC50 [1]: 5.30 to 6.30

SMILES: N#CCOc1ccc(C(O)c2cc(-c3ncnc4cc(N5CCOCC5)ccc34)c(F)cc2Cl)nn1 (stereo not drawn) [Example 119, (6-{[2-Chloro-4-fluoro-5-(7-morpholin-4-yl-quinazolin-4-yl)-phenyl]hydroxy-methyl}pyridazin-3-yl-oxy)acetonitrile]
- pIC50 [5]: > 6.30

SMILES: OC(c1cc(-c2ncnc3cc(N4CCOCC4)ccc23)ccc1Cl)c1ncnc2sccc12 (stereo not drawn) [Example 430, [2-Chloro-5-(7-morpholin-4-yl-quinazolin-4-yl)-phenyl]thieno[2,3-d}-pyrimidin-4-yl-methanol]
- pIC50 [3]: > 6.30

SMILES: [2H]C1([2H])OC([2H])([2H])C([2H])([2H])N(c2ccc3c(-c4cc(C(O)c5ccc(OC)nn5)c(Cl)cc4F)ncnc3c2)C1([2H])[2H] (stereo not drawn) [Example 239, [2-Chloro-4-fluoro-5-[7-(2,2,3,3,5,5,6,6-octadeuterio-morpholin-4-yl)quinazolin-4-yl]phenyl]-(6-methoxypyridazin-3-yl)methanol]
- pIC50 (phospho-serine 2056 DNA-PK, bleomycin-treated HCT116 cells): 4.52 to 5.00

SMILES: NC(=O)C(c1cccnc1)c1ccc(F)c(-c2ncnc3cc(N4CCOCC4)ccc23)c1 (stereo not drawn) [Example 295, 2-[4-Fluoro-3-(7-morpholin-4-yl-quinazolin-4-yl)-phenyl]-2-pyridin-3-ylacetamide]
- pIC50 [4]: 4.52 to 5.00

SMILES: COc1nccnc1C(C(N)=O)c1cc(-c2ncnc3cc(N4CCOCC4)ccc23)ccc1F (stereo not drawn) [Example 316, 2-[2-Fluoro-5-(7-morpholin-4-yl-quinazolin-4-yl)-phenyl]-2-(3-methoxy-pyrazin-2-yl)acetamide]
- pIC50 [4]: 5.00 to 5.30

SMILES: OC(c1cc(-c2ncnc3cc(N4CCOCC4)ccc23)c(F)cc1F)c1nncc2ccoc12 (stereo not drawn) [Example 336, [2,4-Difluoro-5-(7-morpholin-4-yl-quinazolin-4-yl)-phenyl]furo[2,3-d}-pyridazin-7-yl-methanol]
- pIC50 [4]: > 6.30

SMILES: NC(=O)C(c1ccc(F)c(-c2ncnc3cc(N4CCOCC4)ccc23)c1)c1ncnn2cccc12 (stereo not drawn) [Example 299, 2-[4-Fluoro-3-(7-morpholin-4-yl-quinazolin-4-yl)-phenyl]-2-pyrrolo-[2,1-f][1,2,4]triazin-4-ylacetamide]
- pIC50 [4]: 4.52 to 5.00

SMILES: Cc1cnc(C)c(C(O)c2cc(-c3ncnc4cc(N5CCOCC5)ccc34)c(F)cc2F)n1 (stereo not drawn) [Example 88, [2,4-Difluoro-5-(7-morpholin-4-yl-quinazolin-4-yl)-phenyl]-(3,6-dimethyl-pyrazin-2-yl)methanol]
- pIC50 [1]: > 6.30

SMILES: Cc1nccnc1[C@H](O)c1ccc(F)c(-c2ncnc3cc(N4CCOCC4)cnc23)c1 [Example 234, (R)-[4-Fluoro-3-(7-morpholin-4-yl-pyrido[3,2-d}-pyrimidin-4-yl)-phenyl]-(3-methyl-pyrazin-2-yl)-methanol]
- pIC50 [4]: > 6.30

SMILES: OC(c1cc(-c2ncnc3cc(N4CCOCC4)ccc23)c(F)cc1F)c1nncc2ccsc12 (stereo not drawn) [Example 342, [2,4-Difluoro-5-(7-morpholin-4-yl-quinazolin-4-yl)-phenyl]thieno[2,3-d}-pyridazin-7-yl-methanol]
- pIC50 [4]: > 6.30

SMILES: N#CCCOc1ccc(C(O)c2cc(-c3ncnc4cc(N5CCOCC5)ccc34)c(F)cc2Cl)nn1 (stereo not drawn) [Example 107, 3-(6-{[2-Chloro-4-fluoro-5-(7-morpholin-4-yl-quinazolin-4-yl)-phenyl]hydroxy-methyl}pyridazin-3-yl-oxy)propionitrile]
- pIC50 [5]: 5.30 to 6.30

SMILES: OC(c1cc(-c2ncnc3cc(N4CCOCC4)ccc23)ccc1F)c1cccc2nncn12 (stereo not drawn) [Example 373, [2-Fluoro-5-(7-morpholin-4-yl-quinazolin-4-yl)-phenyl]-[1,2,4]-triazolo[4,3-a]pyridin-5-ylmethanol]
- pIC50 [3]: 5.30 to 6.30

SMILES: Nc1cncc(C(O)c2ccc(F)c(-c3ncnc4cc(N5CCOCC5)ccc34)c2)n1 (stereo not drawn) [Example 302, (6-Amino-pyrazin-2-yl)-[4-fluoro-3-(7-morpholin-4-yl-quinazolin-4-yl)-phenyl]methanol]
- pIC50 [4]: 5.00 to 5.30

SMILES: Fc1ccc(C(OC(F)F)c2nccs2)cc1-c1ncnc2cc(N3CCOCC3)ccc12 (stereo not drawn) [Example 199, 4-[5-(Difluoro-methoxy-thiazol-2-ylmethyl)-2-fluoro-phenyl]-7-morpholin-4-yl-quinazoline]
- pIC50 [5]: 4.52 to 5.00

SMILES: OC(c1ccc(F)c(-c2ncnc3cc(N4CCOCC4)sc23)c1)c1nccnc1Cl (stereo not drawn) [Example 37, (3-Chloropyrazin-2-yl)-[4-fluoro-3-(6-morpholin-4-ylthieno[3,2-d}pyrimidin-4-yl)phenyl]-methanol]
- pIC50 (cellular, HCT116 cells, 10 μM bleomycin, six hours): > 6.30

SMILES: OC(c1ccc(F)c(-c2ncnc3cc(N4CCOCC4)ccc23)c1)c1nccnc1N1CCCC1 (stereo not drawn) [Example 14, [4-Fluoro-3-(7-morpholin-4-yl-quinazolin-4-yl)phenyl]-(3-pyrrolidin-1-yl-pyrazin-2-yl)methanol]
- pIC50 [1]: 5.30 to 6.30

SMILES: NC(=O)C(c1cccnc1)c1cc(-c2ncnc3cc(N4CCOCC4)ccc23)c(F)cc1Cl (stereo not drawn) [Example 293, 2-[2-Chloro-4-fluoro-5-(7-morpholin-4-yl-quinazolin-4-yl)-phenyl]-2-pyridin-3-ylacetamide]
- pIC50 [4]: 5.00 to 5.30
